Test results: patent US20180352845A1, “NUTRITIONAL COMPOSITIONS AND INFANT FORMULAS TO PROMOTE MYELINATION IN THE BRAIN” (NESTEC S.A., priority 2015, published 2018)

These molecules were tested on brain myelination (myelin water fraction) (assay: Cross-sectional correlation analysis (GLM) of infant formula nutrient composition vs brain myelination by mcDESPOT MRI). Details: children up to 5 years fed different infant formulas during infancy; voxel-wise correlations, p<0.05 corrected; inter-variable correlation threshold 0.9.
Format: in vivo, human
Method: MRI brain scans of infants and children between 0 and 5 years were acquired using a white matter imaging technique. This technique provides a quantitative measure, the Myelin Water Fraction (MWF), which is a surrogate marker of myelin content. When mapped as a function of time across early childhood, myelination trajectories can be generated.
Infant formula composition: six infant formulas fed to infants participating in study were analyzed for their composition/level of myelin-relevant nutrients.
Infants included in this study were drawn from a larger longitudinal study of normal brain and behavioral development: the Brown university Assessment of Myelination and Behavior Across Maturation (BAMBAM). To focus on neurotypical development, children with known potential risk factors for learning, neurologic, or psychiatric disorders were specifically excluded during recruitment and enrollment. Thus, children with in utero alcohol or illicit substance exposure, premature (<37 weeks gestation) or multiple birth, fetal ultrasound abnormalities, complicated pregnancy (e.g., preeclampsia), APGAR scores <8, NICU admission, neurological disorder (e.g., head injury, epilepsy), psychiatric or developmental disorders in the infant, parents or siblings (including maternal depression requiring medication) were excluded. Ongoing screenings, such as the MCAT for autism, or CBCL for behavioral problems, were further used to remove enrolled children with clinically concerning behaviors or overt medical conditions (such as autism spectrum disorders).
A combination of retrospective and prospective data were acquired from parents via detailed medical histories and parental interview on type of infant formula used, percentage of breastfeeding to formula feeding, and length of exclusive breastfeeding. This information was updated at each study visit, which occurred approximately every 6 months for children under 2 years, and yearly for older children. Using this information, children were categorized into one of 2 groups: #1. Exclusively formula-fed; and #2. Exclusively breastfed for at least 90 days (3 months). Children who were fed a combination of breastmilk and formula within 3 months were excluded from our analysis. Infants within the exclusively formula-fed group were further sub-divided based on parental reports of the main infant formula used throughout the first 3 months. Main formula was defined as that given 90% of the time or more (in the case were parents used an alternate brand during vacation, for example).
Using these criteria, 94 exclusively formula-fed infants and young children were selected into group #1. These included 13 children who received formula #2; 28 who received formula #5; 8 who received formula #3; 39 who received formula #4; 5 who received formula #1 and 1 who received formula #6. A sample of 52 exclusively breast-fed infants were also selected and matched to the over formula-fed group with regards to mean age, gestation duration, birth weight, male:female ratio, ethnicity ratio, maternal education, family size, and number of languages spoken in the home (in addition to English).
Each infant was scanned using the mcDESPOT (multicomponent Driven Equilibrium Single Pulse Observation of T1 and T2) white matter imaging technique Deoni et al. (Magn. Reson. Med. 2008, 60:1372-1387), which provides a quantitative measure of the myelin water fraction (MWF) at each imaging point throughout the brain. All infants were scanned during natural (i.e. non-sedated) sleep using acoustically-muffled mcDESPOT imaging protocols. Total imaging times ranged from 19 minutes for the youngest toddlers to 24 minutes for the older 4 year-old children.

Row | Molecule | nutritional drivers for myelination indicated by the final general linear model
1 | phosphatidylcholine | identified drivers
2 | iron | identified drivers
3 | [P] [phosphorus] | identified drivers
4 | [Ca+2] [calcium] | identified drivers
5 | phosphatidylinositol | identified drivers
6 | CCCCC/C=C\C/C=C\C/C=C\C/C=C\CCCC(=O)O [ARA, arachidonic acid] | identified drivers
7 | [Mg+2] [Magnesium] | identified drivers
8 | sphingomyelin | identified drivers
9 | [Zn] [zinc] | identified drivers
